{"source": "patent US6406718B1", "about": "“Orthorhombic crystalline form of fluticasone propionate and pharmaceutical compositions thereof” (SmithKline Beecham Corporation, priority 1996, dated 2002)"}
{"experiment": "Particle shape by scanning electron microscopy", "format": "physicochemical", "settings": "not given", "method": "The particle shape was determined by scanning electron microscopy. Data for three samples of fluticasone propionate of the present invention, produced using the method and apparatus described herein, are presented in FIGS. 5 to 7."}
{"substance": "fluticasone propionate [Sample 5]", "Particle shape": "acicular"}
{"substance": "fluticasone propionate [Sample 6]", "Particle shape": "flake-like"}
{"substance": "fluticasone propionate [Sample 7]", "Particle shape": "equant"}
{"experiment": "Static charge test (drug retained on vial walls after rolling)", "format": "physicochemical", "settings": "after rolling drug in the vial for 2 minutes", "method": "A simple test was devised to ascertain a relative static charge based on the quantity of drug remaining coated to the walls of a vial after rolling a predetermined quantity of drug in the vial for 2 minutes. The greater the amount of the drug remaining on the vial, the higher the relative static charge associated with the drug substance.", "units": {"% Drug retained on vial": "%"}}
{"substance": "fluticasone propionate [Conventionally crystallised fluticasone propionate (micronis] [reference compound]", "% Drug retained on vial": 4.5}
{"substance": "fluticasone propionate [Sample 14]", "% Drug retained on vial": 3.8}
{"substance": "fluticasone propionate [Sample 15]", "% Drug retained on vial": 4.2}
{"substance": "fluticasone propionate [Sample 16]", "% Drug retained on vial": 7.6}
{"substance": "fluticasone propionate [Sample 17]", "% Drug retained on vial": 8.6}
{"experiment": "Stability of Form 2 to conversion to Form 1 by XRPD", "format": "physicochemical", "settings": "after 62 weeks at ambient temperature and humidity", "method": "X-ray powder diffraction (XRPD) patterns were generated using either a Siemens D 5000 or Philips X'pert MPD. The powders were scanned over a 2θ angle range of either 1.5° to 60°, or 0° to 35°, with a 0.02-0.050 step at 3-15 seconds count time using CuKα radiation. The Siemens D5000 measures intensity as counts per second and the Philips X'pert MPD measures intensity as counts."}
{"substance": "fluticasone propionate [Form 2 fluticasone propionate prepared as described herein]", "Conversion of Form 2 to Form 1": "no conversion was seen"}
{"experiment": "Solvent content test by NMR", "format": "physicochemical", "settings": "not given", "method": "The solvent content of fluticasone propionate of the present invention was investigated by Nuclear Magnetic Resonance (NMR) and compared to that of conventional crystallised fluticasone propionate. Each sample was tested for acetone content. (The conventionally crystallised fluticasone propionate was crystallised from acetone.) In addition, sample 5 was crystallised from methanol and therefore tested for methanol."}
{"substance": "fluticasone propionate [Conventionally crystallised fluticasone propionate (micronis] [reference compound]", "Acetone Content": "typically 0.7 % w/w"}
{"substance": "fluticasone propionate [Sample 5]", "Acetone Content": "Not Detected", "Methanol Content": "Not Detected"}
{"substance": "fluticasone propionate [Sample 8]", "Acetone Content": "Not Detected"}
{"substance": "fluticasone propionate [Sample 15]", "Acetone Content": "Not Detected"}
{"experiment": "Water content of crystalline forms", "format": "physicochemical", "settings": "not given", "description": "The water content of the two crystalline forms of fluticasone propionate produced with the apparatus described herein has also been determined, and compared with that of conventionally crystallised and micronised fluticasone propionate.", "units": {"Water content": "% w/w"}}
{"substance": "fluticasone propionate [Conventionally crystallised fluticasone propionate (micronis] [reference compound]", "Water content": "<0.1"}
{"substance": "fluticasone propionate [Form 1 fluticasone propionate prepared as described herein]", "Water content": "<0.1"}
{"substance": "fluticasone propionate [Form 2 fluticasone propionate prepared as described herein]", "Water content": ">0.3"}
{"experiment": "Particle size distribution by laser diffraction (Malvern Mastersizer)", "format": "physicochemical", "settings": "drug material used in Inhaler Type A for cascade impaction", "method": "(§1) The data for four samples of fluticasone propionate of the present invention, produced using the method and apparatus described herein, are presented in Table 2 below. The particle size was determined by laser diffraction (Malvern Mastersizer).\n(§2) The particle size was determined by laser diffraction (Malvern Mastersizer).", "units": {"Mean particle size": "microns"}}
{"substance": "fluticasone propionate [Conventionally crystallised fluticasone propionate (micronis] [reference compound]", "Mean particle size": 1.8}
{"substance": "fluticasone propionate [Sample 19]", "Mean particle size": 4.8}
{"experiment": "Particle size distribution by laser diffraction (Malvern Mastersizer)", "format": "physicochemical", "settings": "laser diffraction (Malvern Mastersizer)", "method": "as §1, §2", "units": {"% <5 μm": "%", "% <10 μm": "%"}}
{"substance": "fluticasone propionate [Conventionally crystallised fluticasone propionate (micronis] [reference compound]", "% <5 μm": ">90", "% <10 μm": ">95", "Mean particle size": "1-3 μm", "Uniformity Index": 15}
{"substance": "fluticasone propionate [Sample 1]", "% <5 μm": 48, "% <10 μm": 81, "Mean particle size": "5.2 μm", "Uniformity Index": 12}
{"substance": "fluticasone propionate [Sample 2]", "% <5 μm": 20, "% <10 μm": 48, "Mean particle size": "10.4 μm", "Uniformity Index": 13}
{"substance": "fluticasone propionate [Sample 3]", "% <5 μm": 6, "% <10 μm": 13, "Mean particle size": "31.0 μm", "Uniformity Index": 12}
{"substance": "fluticasone propionate [Sample 4]", "% <5 μm": 68, "% <10 μm": 83, "Mean particle size": "2.8 μm", "Uniformity Index": 4}
{"substance": "fluticasone propionate [Sample 6]", "% <5 μm": 24, "% <10 μm": 51, "Mean particle size": "9.7 μm", "Uniformity Index": 10}
{"substance": "fluticasone propionate [Sample 8]", "% <5 μm": 23, "% <10 μm": 53, "Mean particle size": "9.4 μm", "Uniformity Index": 11}
{"substance": "fluticasone propionate [Sample 9]", "% <5 μm": 23, "% <10 μm": 52, "Mean particle size": "9.6 μm", "Uniformity Index": 12}
{"experiment": "Dynamic bulk density (fluidisability)", "format": "physicochemical", "settings": "not given", "method": "The dynamic bulk density (W) is indicative of a substance's fluidisability and is defined as: [formula]\nwhere P is the packed bulk density (g cm^−3), A is the aerated bulk density (g cm^−3) and C is the compressibility (%) where C is calculated by the equation: [formula]\nClearly, a low figure for W corresponds to a high degree of fluidisability.\nThe dynamic bulk density for conventionally crystallised fluticasone propionate (micronised and non-micronised) and fluticasone propionate of the present invention are shown in Table 7.", "units": {"Dynamic Bulk Density (W)": "g cm^−3"}}
{"substance": "fluticasone propionate [Conventionally crystallised fluticasone propionate (micronis] [reference compound]", "Dynamic Bulk Density (W)": 0.21}
{"substance": "fluticasone propionate [Conventionally crystallised fluticasone propionate (non-micr] [reference compound]", "Dynamic Bulk Density (W)": 0.21}
{"substance": "fluticasone propionate [Sample 3]", "Dynamic Bulk Density (W)": 0.17}
{"substance": "fluticasone propionate [Sample 12]", "Dynamic Bulk Density (W)": 0.05}
{"substance": "fluticasone propionate [Sample 13]", "Dynamic Bulk Density (W)": 0.06}
